Reference: patent US10202387B2, “Heterocyclyl linked imidazopyridazine derivatives as PI3KB inhibitors” (Janssen Pharmaceutica NV, priority 2014, dated 2019)

Key:
[1] = target: T1, PIK3Cβ_h (Homo sapiens, UniProt P42338); assay: Enzyme binding assay (KINOMEscan); conditions: DiscoveRx
T1 construct: purchased DiscoveRx Corporation, San Diego (KINOMEscan service)
Experimental: (§1) Enzyme Binding Assays (KINOMEscan®)
(§2) Kinase enzyme binding affinities of compounds disclosed herein were determined using the KINOMEscan technology performed by DiscoveRx Corporation, San Diego, Calif., USA (www.kinomescan.com). Table A reports the obtained Kd values (nM), with the Kd being the inhibitor binding constant: […]

[2] = target: T2, PIK3Cδ_h (Homo sapiens, UniProt O00329); assay: Enzyme binding assay (KINOMEscan); conditions: DiscoveRx
T2 construct: purchased DiscoveRx Corporation, San Diego (KINOMEscan service)
T2 sequence (O00329 1-1044): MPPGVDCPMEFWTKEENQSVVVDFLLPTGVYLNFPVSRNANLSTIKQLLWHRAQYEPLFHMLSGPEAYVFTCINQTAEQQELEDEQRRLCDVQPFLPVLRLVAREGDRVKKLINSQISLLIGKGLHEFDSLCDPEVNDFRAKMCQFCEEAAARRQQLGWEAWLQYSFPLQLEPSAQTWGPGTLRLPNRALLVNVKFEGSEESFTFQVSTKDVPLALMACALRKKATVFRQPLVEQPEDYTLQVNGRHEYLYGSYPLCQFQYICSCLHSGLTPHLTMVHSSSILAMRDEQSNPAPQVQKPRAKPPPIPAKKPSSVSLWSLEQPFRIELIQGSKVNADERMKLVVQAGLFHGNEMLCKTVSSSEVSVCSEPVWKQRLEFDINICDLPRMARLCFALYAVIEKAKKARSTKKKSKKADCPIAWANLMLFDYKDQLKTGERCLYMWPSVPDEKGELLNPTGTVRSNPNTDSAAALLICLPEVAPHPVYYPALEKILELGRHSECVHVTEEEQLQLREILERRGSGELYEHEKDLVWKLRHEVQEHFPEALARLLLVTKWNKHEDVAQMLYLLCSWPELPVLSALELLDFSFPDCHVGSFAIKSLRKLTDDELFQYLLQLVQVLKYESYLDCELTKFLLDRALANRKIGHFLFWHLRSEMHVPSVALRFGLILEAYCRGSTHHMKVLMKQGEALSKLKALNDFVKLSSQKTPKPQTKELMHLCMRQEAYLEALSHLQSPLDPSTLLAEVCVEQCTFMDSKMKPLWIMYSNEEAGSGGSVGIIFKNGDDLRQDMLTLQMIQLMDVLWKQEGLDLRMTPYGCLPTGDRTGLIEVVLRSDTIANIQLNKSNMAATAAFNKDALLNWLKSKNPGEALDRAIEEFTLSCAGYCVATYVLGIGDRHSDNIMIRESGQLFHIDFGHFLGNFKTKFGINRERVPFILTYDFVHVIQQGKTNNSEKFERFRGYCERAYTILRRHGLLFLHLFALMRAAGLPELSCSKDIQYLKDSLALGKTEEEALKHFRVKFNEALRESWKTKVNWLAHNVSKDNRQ
Experimental: as §1, §2

[3] = target: T3, MTOR_h (Homo sapiens, UniProt P42345); assay: Enzyme binding assay (KINOMEscan); conditions: DiscoveRx
T3 construct: purchased DiscoveRx Corporation, San Diego (KINOMEscan service)
Experimental: as §1, §2

[4] = target: T4, PIK3Cγ_h (Homo sapiens, UniProt P48736); assay: Enzyme binding assay (KINOMEscan); conditions: DiscoveRx
T4 construct: purchased DiscoveRx Corporation, San Diego (KINOMEscan service)
T4 sequence (P48736 whole entry): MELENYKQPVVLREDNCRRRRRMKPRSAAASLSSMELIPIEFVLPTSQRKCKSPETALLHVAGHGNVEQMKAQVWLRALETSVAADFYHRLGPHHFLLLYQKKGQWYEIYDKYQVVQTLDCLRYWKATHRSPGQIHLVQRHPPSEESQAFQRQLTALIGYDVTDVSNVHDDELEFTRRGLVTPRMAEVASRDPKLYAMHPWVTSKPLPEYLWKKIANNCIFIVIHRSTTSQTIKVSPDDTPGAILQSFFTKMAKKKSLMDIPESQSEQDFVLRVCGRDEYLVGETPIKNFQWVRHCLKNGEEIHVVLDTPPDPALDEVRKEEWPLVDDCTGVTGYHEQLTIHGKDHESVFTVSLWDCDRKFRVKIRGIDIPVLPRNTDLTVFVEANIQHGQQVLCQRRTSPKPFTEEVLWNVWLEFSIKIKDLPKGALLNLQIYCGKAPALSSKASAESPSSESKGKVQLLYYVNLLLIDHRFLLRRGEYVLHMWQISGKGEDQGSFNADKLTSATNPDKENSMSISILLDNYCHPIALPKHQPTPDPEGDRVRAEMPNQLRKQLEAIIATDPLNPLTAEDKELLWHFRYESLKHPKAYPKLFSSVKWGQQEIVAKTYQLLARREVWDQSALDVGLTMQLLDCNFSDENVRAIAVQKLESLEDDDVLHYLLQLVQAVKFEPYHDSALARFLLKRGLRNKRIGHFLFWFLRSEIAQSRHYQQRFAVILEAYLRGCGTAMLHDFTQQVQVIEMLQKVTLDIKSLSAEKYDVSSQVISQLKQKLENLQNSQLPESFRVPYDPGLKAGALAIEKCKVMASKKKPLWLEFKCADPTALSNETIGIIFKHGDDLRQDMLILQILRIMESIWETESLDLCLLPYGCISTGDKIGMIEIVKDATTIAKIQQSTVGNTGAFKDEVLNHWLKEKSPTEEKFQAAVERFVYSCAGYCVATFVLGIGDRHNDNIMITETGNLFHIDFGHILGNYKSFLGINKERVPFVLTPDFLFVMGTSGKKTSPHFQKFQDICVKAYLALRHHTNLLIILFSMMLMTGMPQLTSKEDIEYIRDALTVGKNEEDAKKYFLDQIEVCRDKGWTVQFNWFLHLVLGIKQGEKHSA
Experimental: as §1, §2

[5] = target: T5, PIK3Cα_h (Homo sapiens, UniProt P42336); assay: Enzyme binding assay (KINOMEscan); conditions: DiscoveRx
T5 construct: purchased DiscoveRx Corporation, San Diego (KINOMEscan service)
T5 sequence (P42336 whole entry): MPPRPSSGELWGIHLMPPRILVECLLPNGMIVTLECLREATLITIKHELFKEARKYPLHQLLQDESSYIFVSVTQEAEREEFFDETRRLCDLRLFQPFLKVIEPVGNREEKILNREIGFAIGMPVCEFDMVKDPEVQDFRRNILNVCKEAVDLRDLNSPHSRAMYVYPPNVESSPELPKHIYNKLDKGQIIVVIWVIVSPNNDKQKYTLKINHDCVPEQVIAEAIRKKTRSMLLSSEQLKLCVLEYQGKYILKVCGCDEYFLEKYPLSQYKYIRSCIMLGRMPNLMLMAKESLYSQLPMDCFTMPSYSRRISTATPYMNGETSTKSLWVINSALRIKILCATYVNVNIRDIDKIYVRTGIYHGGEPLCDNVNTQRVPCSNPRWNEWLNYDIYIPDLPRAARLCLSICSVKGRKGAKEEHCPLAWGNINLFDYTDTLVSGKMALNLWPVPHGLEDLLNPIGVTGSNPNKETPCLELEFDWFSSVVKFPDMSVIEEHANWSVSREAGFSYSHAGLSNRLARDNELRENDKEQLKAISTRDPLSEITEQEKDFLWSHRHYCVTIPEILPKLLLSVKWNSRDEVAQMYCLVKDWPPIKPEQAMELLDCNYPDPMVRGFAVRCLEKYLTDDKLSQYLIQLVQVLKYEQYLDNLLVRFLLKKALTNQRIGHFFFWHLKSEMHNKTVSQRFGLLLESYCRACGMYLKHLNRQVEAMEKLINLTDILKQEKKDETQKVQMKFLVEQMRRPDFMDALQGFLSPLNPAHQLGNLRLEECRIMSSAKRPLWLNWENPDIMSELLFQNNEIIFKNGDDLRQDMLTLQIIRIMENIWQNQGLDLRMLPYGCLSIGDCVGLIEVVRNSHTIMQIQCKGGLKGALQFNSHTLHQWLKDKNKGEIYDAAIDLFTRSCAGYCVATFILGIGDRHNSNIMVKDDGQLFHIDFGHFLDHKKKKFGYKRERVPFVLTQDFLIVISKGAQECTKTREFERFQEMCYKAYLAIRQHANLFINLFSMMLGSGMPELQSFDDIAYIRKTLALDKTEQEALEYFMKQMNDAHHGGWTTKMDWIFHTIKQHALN
Experimental: as §1, §2

[6] = system: Akt phosphorylated at Thr308 in PC-3 cells; assay: Cellular assay: phosphorylation of Akt (Thr308) in PC-3 cells, MSD ELISA; format: cell-based; conditions: Homo sapiens, 1 h, 60 min incubation with compound, read-out: IC50 pAkt_Thr308
Experimental: (§3) Cellular activity of PI3Kβ inhibitors was determined by quantifying the phosphorylation of Akt in PC-3 cells. Akt phosphorylated at Ser473 and Thr308 were measured using an enzyme-linked immunosorbent assay (ELISA; Meso Scale Discovery (MSD). Gaithersburg, Md.) and specific primary antibodies from MSD.
(§4) On day 1, PC3 cells (ATCC […]) were seeded into PerkinElmer MW96 plates at 25.000 cells per well, in 75 μl complete culture medium (DMEM (Dulbecco's Modified Eagle's Medium) high glucose. AQmedia™, D0819, Sigma-Aldrich) containing 10% heat inactivated FCS (Fetal Bovine Serum) and incubated at 37° C., 5% CO2 during 24 hours. On day 2, compound or DMSO (dimethyl sulfoxide) (0.3%) was added and cells were further incubated for 60 min at 37° C., 5% CO2 in a total volume of 100 μl of medium.
(§5) The phosphoprotein assay was executed according to vendor instructions in the Phospho-Akt (Ser473) Assay Whole Cell Lysate Kit (MSD #K15100D-3) and the Phospho-Akt (Thr308) Assay Whole Cell Lysate Kit (MSD #K151DYD-3) using the lysis, blocking and wash buffer provided.
(§6) Briefly, at the end of the cell treatment period, media were removed by aspiration and adherent cells were lysed in 50 μl ice-cold lysis buffer. MSD plates are supplied pre-coated with capture antibodies for Phospho-Akt (Ser473 and Thr308). After blocking, lysates from tissue culture plates were added and plates were washed. Then, a solution containing the detection antibody (anti-total Akt conjugated with an electrochemiluminescent compound-MSD Sulfo-tag label) was added. The signals were detected using an MSD SECTOR Imager 6000 and are proportional to the phospho-Akt titres.
(§7) Data were processed. The percentage of inhibition was plotted against the log concentration of test compounds, and the sigmoidal log concentration-effect curve of best fit was calculated by nonlinear regression analysis. From these concentration-response curves, the IC50 values were calculated. Five concentrations were used for curve fitting.

[7] = system: Akt phosphorylated at Ser473 in PC-3 cells; assay: Cellular assay: phosphorylation of Akt (Ser473) in PC-3 cells, MSD ELISA; format: cell-based; conditions: Homo sapiens, 1 h, 60 min incubation with compound, read-out: IC50 pAkt_S473
Experimental: as §3, §4, §5, §6, §7

T1 sequence (P42338 whole entry): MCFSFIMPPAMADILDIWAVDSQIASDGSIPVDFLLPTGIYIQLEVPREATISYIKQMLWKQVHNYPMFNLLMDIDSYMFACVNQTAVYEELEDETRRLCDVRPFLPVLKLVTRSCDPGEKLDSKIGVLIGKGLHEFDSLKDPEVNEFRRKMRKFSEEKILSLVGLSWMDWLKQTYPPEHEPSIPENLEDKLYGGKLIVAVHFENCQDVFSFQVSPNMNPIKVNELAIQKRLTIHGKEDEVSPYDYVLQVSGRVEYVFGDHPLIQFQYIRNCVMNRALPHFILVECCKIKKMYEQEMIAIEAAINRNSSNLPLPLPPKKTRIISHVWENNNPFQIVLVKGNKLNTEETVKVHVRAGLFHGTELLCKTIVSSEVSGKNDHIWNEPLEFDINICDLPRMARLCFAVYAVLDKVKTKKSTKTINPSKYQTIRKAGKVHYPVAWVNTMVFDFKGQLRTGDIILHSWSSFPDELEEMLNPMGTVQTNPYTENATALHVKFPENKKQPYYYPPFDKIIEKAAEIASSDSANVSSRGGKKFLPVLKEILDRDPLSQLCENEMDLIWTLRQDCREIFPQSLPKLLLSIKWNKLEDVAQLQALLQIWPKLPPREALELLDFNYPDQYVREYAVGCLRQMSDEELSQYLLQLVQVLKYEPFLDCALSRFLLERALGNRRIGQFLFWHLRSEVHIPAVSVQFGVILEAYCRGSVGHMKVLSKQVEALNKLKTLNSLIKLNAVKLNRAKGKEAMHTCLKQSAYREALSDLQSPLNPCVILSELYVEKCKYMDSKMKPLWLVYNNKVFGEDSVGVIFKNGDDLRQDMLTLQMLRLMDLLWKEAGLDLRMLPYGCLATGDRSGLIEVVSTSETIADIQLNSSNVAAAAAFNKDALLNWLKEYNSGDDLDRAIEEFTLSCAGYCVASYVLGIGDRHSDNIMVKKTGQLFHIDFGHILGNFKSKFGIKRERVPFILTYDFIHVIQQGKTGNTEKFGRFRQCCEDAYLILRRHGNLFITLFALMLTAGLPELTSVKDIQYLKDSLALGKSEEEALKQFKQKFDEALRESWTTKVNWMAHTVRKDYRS

| Kd [1] [nM] | Kd [2] [nM] | Kd [3] [nM] | Kd [4] [nM] | Kd [5] [nM] | IC50 [6] [nM] | melting point [°C] | IC50 [7] [nM] | SMILES |
| --- | --- | --- | --- | --- | --- | --- | --- | --- |
| < 1.5 | 79 | > 30200 | 6760 | 813 | 58 | 171 | 65 | Cc1c(Cc2c(CN3CCCC(CO)C3)nc3c(-c4ncc[nH]4)cc(N4CCOCC4)nn23)cccc1C(F)(F)F (centres unmarked) [Compound 17] |
| 2.3 | 166 | > 30200 | > 30200 | 3980 | ~33 | 188 | 18 | Cc1c(Cc2c(CN3CCC(S(C)(=O)=O)CC3)nc3c(N)cc(N4CCOCC4)nn23)cccc1C(F)(F)F [Compound 4] |
| 3 | 398 | > 30200 | > 30200 | 13500 | 100 | 228 | 120 | Cc1c(Cc2c(CN3CCC4(CCCCS4(=O)=O)C3)nc3c(N)cc(N4CCOCC4)nn23)cccc1C(F)(F)F (centres unmarked) [Compound 33] |
| 0.8 | 68 | 5130 | 4900 | 5490 | 141 | 212 | 158 | Cc1c(Cc2c(CNC(=O)[C@H]3CCCN3)nc3c(N)cc(N4CCOCC4)nn23)cccc1C(F)(F)F (stereo in doubt) [Compound 37] |
| 1.2 | 12 | 3160 | 933 | 162 | ~4 | 217 | 9 | Cc1c(Cc2c(CN3CC4(C3)CS(=O)(=O)C4)nc3c(-c4cnc[nH]4)cc(N4CCOCC4)nn23)cccc1C(F)(F)F [Compound 1] |
| 0.7 | 81 | 11700 | > 30200 | 1860 | 7 | 214 | 10 | Cc1c(Cc2c(CN3CCS(=O)(=O)CC3)nc3c(N)cc(N4CCOCC4)nn23)cccc1C(F)(F)F [Compound 11] |
| 1.3 | 32 | 9330 | 1550 | 275 | ~20 | 150 | ~34 | Cc1c(Cc2c(CN3CC4(C3)CS(=O)(=O)C4)nc3c(-c4ncc[nH]4)cc(N4CCOCC4)nn23)cccc1C(F)(F)F [Compound 20] |
| 1.6 | 195 | 15500 | 30900 | 11500 | ~20 | 210 | 25 | Cc1c(Cc2c(CN3CC(S(C)(=O)=O)C3)nc3c(N)cc(N4CCOCC4)nn23)cccc1C(F)(F)F [Compound 8] |
| 3 | 372 | > 30200 | 10700 | 692 | ~62 | 216 | 275 | Cc1c(Cc2c(CN3CC4(C3)CS(=O)(=O)C4)nc3c(C(N)=O)cc(N4CCOCC4)nn23)cccc1C(F)(F)F [Compound 26] |
| 1.6 | 52 | 4370 | 891 | 513 | 54 | 198 | 50 | Cc1c(Cc2c(CN3CC(O)C3)nc3c(-c4ncc[nH]4)cc(N4CCOCC4)nn23)cccc1C(F)(F)F [Compound 19] |
| 1.1 | 123 | 1230 | 2690 | 4470 | 55 | 214 | 117 | Cc1c(F)cccc1Cc1c(CN2CC(O)C2)nc2c(N)cc(N3CCOCC3)nn12 [Compound 42] |

Second part, the compound before the results:

| SMILES | Kd [1] [nM] | Kd [2] [nM] | Kd [3] [nM] | Kd [4] [nM] | Kd [5] [nM] | IC50 [6] [nM] | melting point [°C] | IC50 [7] [nM] |
| --- | --- | --- | --- | --- | --- | --- | --- | --- |
| Cc1c(Cc2c(CC(=O)N3CCS(=O)(=O)CC3)nc3c(N)cc(N4CCOCC4)nn23)cccc1C(F)(F)F [Compound 23] | 1.5 | 240 | > 30200 | > 30200 | 2240 | ~68 | 226 | ~79 |
| Cc1c(Cc2c(CNC(=O)[C@@H]3C[C@@H](O)CN3)nc3c(N)cc(N4CCOCC4)nn23)cccc1C(F)(F)F [Compound 36] | 0.1 | 5 | 3140 | 3000 | 1390 | ~50 | 140 | ~73 |
| Cc1c(Cc2c(CN3CCC4(CCS4(=O)=O)C3)nc3c(N)cc(N4CCOCC4)nn23)cccc1C(F)(F)F (centres unmarked) [Compound 32] | 2.5 | 251 | > 30200 | > 30200 | 15100 | 74 | 214 | 91 |
| Cc1c(F)cccc1Cc1c(CN2CCS(=O)(=O)CC2)nc2c(N)cc(N3CCOCC3)nn12 [Compound 43] | 0.4 | 62 | 1380 | > 30200 | 2040 | 17 | 130 | 10 |
| Cc1c(Cc2c(COC(=O)CN3CCN(C)CC3)nc3c(N)cc(N4CCOCC4)nn23)cccc1C(F)(F)F [Compound 40b] | 2.8 | 479 | 21900 | > 30200 | 25100 | 105 | 99 | 214 |
| Cc1c(Cc2c(CN3CCC(S(C)(=O)=O)C3)nc3c(N)cc(N4CCOCC4)nn23)cccc1C(F)(F)F (centres unmarked) [Compound 6] | 2.4 | 263 | 21900 | > 30200 | 7080 | ~13 | 159 | 40 |
| CCc1c(F)cccc1Cc1c(CN2CCS(=O)(=O)CC2)nc2c(N)cc(N3CCOCC3)nn12 [Compound 45] | 1.1 | 178 | 2000 | > 30200 | 2400 | > 513 | 240 | > 513 |
| CCc1c(F)cccc1Cc1c(CN2CC(O)C2)nc2c(N)cc(N3CCOCC3)nn12 [Compound 44] | 5.4 | 275 | 1050 | 537 | 1700 | 145 | 172 | 316 |
